Values quoted from earlier work as cited in PubChem BioAssay AID1259409 (Chemical Carcinogenesis Research Information System (CCRIS), 2018).

Tested on: rodent chemically induced tumor inhibition, incidence and multiplicity
Assay: CCRIS tumor inhibitor studies
Details: Dose [Inhibitor]: 0, Route [Inhibitor]: ORAL, Species: RAT, Promoter: NONE USED

SMILES: CCCCCCCCCCCCC(=O)COC1=C(O)C(=O)O[C@@H]1[C@@H](O)CO
- tumour outcome (control, treated, inhibition, significance) (Carcinogen: 2-AMINO-1-METHYL-6-PHENYLIMIDAZO[4,5-B]PYRIDINE, 105650-23-5, 1% IN DIET FOR 52 WK CONCURRENTLY WITH CARCINOGEN TREATMENT (STUDY DURATION: 52 WK), Strain/Sex: F344/FEMALE, Target Tissue: Type of Lesion: LARGE INTESTINE: ADENOMA OR CARCINOMA, Dose [Carcinogen]: 0.02% IN DIET FOR 52 WK): 2/18 (11%), 1/20 (5%), 55%, not significant
- tumour outcome (control, treated, inhibition, significance) (Carcinogen: 2-AMINO-1-METHYL-6-PHENYLIMIDAZO[4,5-B]PYRIDINE, 105650-23-5, 1% IN DIET FOR 52 WK CONCURRENTLY WITH CARCINOGEN TREATMENT (STUDY DURATION: 52 WK), Strain/Sex: F344/FEMALE, Target Tissue: Type of Lesion: MAMMARY GLAND: ADENOCARCINOMA, Dose [Carcinogen]: 0.02% IN DIET FOR 52 WK): 8/20 (40%), 5/21 (24%), 40%, not significant
- tumour outcome (control, treated, inhibition, significance) (Carcinogen: DIETHYLNITROSAMINE, 55-18-5, N-METHYL-N-NITROSOUREA, 684-93-5, N-BUTYL-N-(4-HYDROXYBUTYL)NITROSAMINE, 3817-11-6, DIMETHY, Carcinogen: DIETHYLNITROSAMINE, 55-18-5, N-METHYL-N-NITROSOUREA, 684-93-5, N-BUTYL-N-(4-HYDROXYBUTYL)NITROSAMINE, 3817-11-6, DIMETHY, 1% IN THE DIET FOR 24 WK BEGINNING 1 D POST CARCINOGEN TREATMENT (STUDY DURATION: 28 WK), Strain/Sex: F344/MALE, Target Tissue: Type of Lesion: LARGE INTESTINE: CARCINOMA, Dose [Carcinogen]: 100 MG/KG BW DEN ONCE FOLLOWED BY 20 MG/KG BW MNU 4 TIMES AND 0.05% BBN IN DRINKING WATER DURING FIRST 2 WK THEN 40 MG/K): 7%, 0%, 100%, not significant
- tumour outcome (control, treated, inhibition, significance) (Carcinogen: DIETHYLNITROSAMINE, 55-18-5, N-METHYL-N-NITROSOUREA, 684-93-5, N-BUTYL-N-(4-HYDROXYBUTYL)NITROSAMINE, 3817-11-6, DIMETHY, Carcinogen: DIETHYLNITROSAMINE, 55-18-5, N-METHYL-N-NITROSOUREA, 684-93-5, N-BUTYL-N-(4-HYDROXYBUTYL)NITROSAMINE, 3817-11-6, DIMETHY, 1% IN THE DIET FOR 24 WK BEGINNING 1 DAY POST CARCINOGEN TREATMENT (STUDY DURATION: 28 WK ), Strain/Sex: F344/MALE, Target Tissue: Type of Lesion: URINARY BLADDER: CARCINOMA, Dose [Carcinogen]: 100 MG/KG BW DEN ONCE FOLLOWED BY 20 MG/KG BW MNU 4 TIMES AND 0.05% BBN IN DRINKING WATER DURING FIRST 2 WK THEN 40 MG/K): 7%, 0%, 100%, not significant
- tumour outcome (control, treated, inhibition, significance) (Carcinogen: DIETHYLNITROSAMINE, 55-18-5, N-METHYL-N-NITROSOUREA, 684-93-5, N-BUTYL-N-(4-HYDROXYBUTYL)NITROSAMINE, 3817-11-6, DIMETHY, Carcinogen: DIETHYLNITROSAMINE, 55-18-5, N-METHYL-N-NITROSOUREA, 684-93-5, N-BUTYL-N-(4-HYDROXYBUTYL)NITROSAMINE, 3817-11-6, DIMETHY, 1% IN THE DIET FOR 24 WK BEGINNING 1 DAY POST CARCINOGEN TREATMENT (STUDY DURATION: 28 WK), Strain/Sex: F344/MALE, Target Tissue: Type of Lesion: LARGE INTESTINE: ADENOMA, Dose [Carcinogen]: 100 MG/KG BW DEN ONCE FOLLOWED BY 20 MG/KG BW MNU 4 TIMES AND 0.05% BBN IN DRINKING WATER DURING FIRST 2 WK THEN 40 MG/K): 27%, 13%, 52%, not significant
- tumour outcome (control, treated, inhibition, significance) (Carcinogen: DIETHYLNITROSAMINE, 55-18-5, N-METHYL-N-NITROSOUREA, 684-93-5, N-BUTYL-N-(4-HYDROXYBUTYL)NITROSAMINE, 3817-11-6, DIMETHY, Carcinogen: DIETHYLNITROSAMINE, 55-18-5, N-METHYL-N-NITROSOUREA, 684-93-5, N-BUTYL-N-(4-HYDROXYBUTYL)NITROSAMINE, 3817-11-6, DIMETHY, 1% IN THE DIET FOR 24 WK BEGINNING 1 DAY POST CARCINOGEN TREATMENT (STUDY DURATION: 28 WK), Strain/Sex: F344/MALE, Target Tissue: Type of Lesion: SMALL INTESTINE: ADENOMA, Dose [Carcinogen]: 100 MG/KG BW DEN ONCE FOLLOWED BY 20 MG/KG BW MNU 4 TIMES AND 0.05% BBN IN DRINKING WATER DURING FIRST 2 WK THEN 40 MG/K): 33%, 20%, 39%, not significant
- tumour outcome (control, treated, inhibition, significance) (Carcinogen: DIETHYLNITROSAMINE, 55-18-5, N-METHYL-N-NITROSOUREA, 684-93-5, N-BUTYL-N-(4-HYDROXYBUTYL)NITROSAMINE, 3817-11-6, DIMETHY, Carcinogen: DIETHYLNITROSAMINE, 55-18-5, N-METHYL-N-NITROSOUREA, 684-93-5, N-BUTYL-N-(4-HYDROXYBUTYL)NITROSAMINE, 3817-11-6, DIMETHY, 1% IN THE DIET FOR 24 WK BEGINNING 1 DAY POST CARCINOGEN TREATMENT (STUDY DURATION: 28 WK), Strain/Sex: F344/MALE, Target Tissue: Type of Lesion: SMALL INTESTINE: CARCINOMA, Dose [Carcinogen]: 100 MG/KG BW DEN ONCE FOLLOWED BY 20 MG/KG BW MNU 4 TIMES AND 0.05% BBN IN DRINKING WATER DURING FIRST 2 WK THEN 40 MG/K): 7%, 20%, -185%, not significant
- tumour outcome (control, treated, inhibition, significance) (Carcinogen: DIETHYLNITROSAMINE, 55-18-5, N-METHYL-N-NITROSOUREA, 684-93-5, N-BUTYL-N-(4-HYDROXYBUTYL)NITROSAMINE, 3817-11-6, DIMETHY, Carcinogen: DIETHYLNITROSAMINE, 55-18-5, N-METHYL-N-NITROSOUREA, 684-93-5, N-BUTYL-N-(4-HYDROXYBUTYL)NITROSAMINE, 3817-11-6, DIMETHY, 1% IN THE DIET FOR 24 WK BEGINNING 1 DAY POST CARCINOGEN TREATMENT (STUDY DURATION: 28 WK), Strain/Sex: F344/MALE, Target Tissue: Type of Lesion: THYROID: CARCINOMA, Dose [Carcinogen]: 100 MG/KG BW DEN ONCE FOLLOWED BY 20 MG/KG BW MNU 4 TIMES AND 0.05% BBN IN DRINKING WATER DURING FIRST 2 WK THEN 40 MG/K): 7%, 0%, 100%, not significant
